Assay results as given in patent publication US20230364029A1, “POLYMORPHIC FORMS OF (R)-2-HYDROXY-2-METHYL-4-(2,4,5-TRIMETHYL-3,6-DIOXOCYCLOHEXA-1,4-DIENYL)BUTANAMIDE” (PTC THERAPEUTICS, INC., priority 2014, published 2023).
≈ marks a conversion by molar mass, not a printed value.

Columns and labels:
Format in all cases: physicochemical
[1] = Aqueous solubility (HPLC); details: water, ambient conditions, 24 hours of equilibration
Procedure: Aqueous solubility of Patterns A, B, C, E and F was performed using an Agilent HPLC system. Approximately 10-20 mg of each form was charged to a 2 mL glass vial loaded with a magnetic stir bar and added 2 mL of water. The samples were allowed to stir overnight at ambient conditions. Following 24 hours of equilibration the samples were centrifuged and decanted into HPLC vials. A calibration curve was generated based on Pattern A in MeOH at 0.05, 0.1, 0.5 and 1.0 mg/mL. Following injection of the standard curve, the samples were run as is.

[2] = Moisture sorption analysis; details: for XRPD following moisture sorption analysis: after 0-95% RH cycles at 25° C.; for Hygroscopicity: moisture sorption, 0-95% RH cycles; for Hygroscopicity / Water adsorbed / Hysteresis upon desorption: 25° C.; for Water adsorbed: at 95 %RH; for Hysteresis upon desorption: moisture sorption-desorption
Procedure: (§1) Moisture sorption analysis of the starting material was performed by equilibrating the sample at 25° C. and 50% RH to simulate ambient lab conditions. Humidity then decreased to 0% RH, increased from 0 to 95% RH, reduced from 95 to 0% RH, increased from 0 to 95 %RH and then decreased from 95 to 50% RH. Each point represents the estimated asymptotic weight for each humidity or weight. […] No hysteresis was observed upon desorption (FIG. 14).
as §1, with “of Pattern E (from” for “of”, “300 mg scale lot)” for “starting material”, “Humidity was” for “Humidity”, “19).” for “14).”
Moisture sorption analysis of Pattern C (300 mg lot) was performed by equilibrating the sample at 25° C. and 50% RH to simulate ambient lab conditions. Humidity was then decreased to 0% RH, increased from 0 to 95% RH, reduced from 95 to 0% RH, increased from 0 to 95%RH and then decreased from 95 to 50% RH. Each point represents the estimated asymptotic weight for each humidity or weight. […] This increased the total water to about 6% which is the water content of mono-hydrate. However, upon reducing the relative humidity, the solid lost its water. Therefore this could be a channel hydrate. No hysteresis was observed upon desorption (FIG. 24).
as §1, with “Pattern B (300 mg lot)” for “the starting material”, “The major weight loss at the beginning” for “No hysteresis”, “due to loss of solvent.” for “observed upon desorption (FIG. 14).”
as §1, with “Pattern F (from Example 6)” for “the starting material”, “Humidity was” for “Humidity”, “The major weight loss at the beginning is due to loss of solvent.” for “No hysteresis was observed upon desorption (FIG. 14).”

[3] = 7 day elevated aqueous humidity studies; details: for Visual Observations 1 day / Visual Observations 7 day / XRPD [Pattern] 7 day: > 95 %RH at Ambient; for XRPD [Pattern] 7 day: form after 7 days; for Stability to elevated humidity: Example 8, summary statement
Procedure: 7 day elevated aqueous humidity experiments were performed on all Patterns A, B, C, D, E and F at ambient conditions at > 95%RH (Table 17). Approximately 30 mg of each pattern was weighed into a 4 ml glass vial. The uncovered 4 ml vial was inserted into a 20 ml scintillation vial half filled with water and capped. Following 24 hours of equilibration, visual inspection was performed to check for changes in physical appearance, however no change was observed.

Row | SMILES | Solubility (aqueous) [1] [µg/mL] | XRPD following moisture sorption analysis [2] | Hygroscopicity [2] | Hygroscopicity ([2]; listed as Form IV) | Visual Observations 1 day [3] | Visual Observations 7 day [3] | XRPD [Pattern] 7 day [3] | XRPD [Pattern] 7 day ([3]; listed as B) | Total water after adsorption ([2]; at 95%RH) | Water adsorbed [2] [%] | Hysteresis upon desorption [2] | XRPD [Pattern] 7 day ([3]; listed as C) | Stability to elevated humidity [3] | XRPD [Pattern] 7 day ([3]; listed as D) | Hygroscopicity ([2]; listed as Form II) | XRPD [Pattern] 7 day ([3]; listed as E) | Hygroscopicity ([2]; listed as Form VI) | XRPD [Pattern] 7 day ([3]; listed as F)
1 | CC1=C(C)C(=O)C(CC[C@@](C)(O)C(N)=O)=C(C)C1=O [Pattern B, (R)-2-hydroxy-2-methyl-4-(2,4,5-trimethyl-3,6-dioxocyclohexa-1,4-dienyl)butanamide] | 1300 (≈ 4.9 mM) | consistent with Pattern A | non-hygroscopic | non-hygroscopic | Yellow solids | Yellow solids | mixture of Patterns A/B | Crystalline [Mixture of Patterns A/B] | – | – | – | – | – | – | – | – | – | –
2 | CC1=C(C)C(=O)C(CC[C@@](C)(O)C(N)=O)=C(C)C1=O [Pattern C, (R)-2-hydroxy-2-methyl-4-(2,4,5-trimethyl-3,6-dioxocyclohexa-1,4-dienyl)butanamide] | 1320 (≈ 4.98 mM) | consistent with Pattern C | slightly hygroscopic | – | Yellow solids | Yellow solids | no change in form | – | about 6% | 2 | No hysteresis | Crystalline [Pattern C] | stability to elevated humidity | – | – | – | – | –
3 | CC1=C(C)C(=O)C(CC[C@@](C)(O)C(N)=O)=C(C)C1=O [Pattern D, (R)-2-hydroxy-2-methyl-4-(2,4,5-trimethyl-3,6-dioxocyclohexa-1,4-dienyl)butanamide] | – | – | – | – | Yellow solids | Yellow solids | mixture of Patterns D/B | – | – | – | – | – | – | Crystalline [Mixture of Patterns D/B] | – | – | – | –
4 | CC1=C(C)C(=O)C(CC[C@@](C)(O)C(N)=O)=C(C)C1=O [Pattern E, (R)-2-hydroxy-2-methyl-4-(2,4,5-trimethyl-3,6-dioxocyclohexa-1,4-dienyl)butanamide] | 1320 (≈ 4.98 mM) | consistent with Pattern E | non-hygroscopic | – | Yellow solids | Yellow solids | no change in form | – | – | 0.2 | No hysteresis | – | stability to elevated humidity | – | non-hygroscopic | Crystalline [Pattern E] | – | –
5 | CC1=C(C)C(=O)C(CC[C@@](C)(O)C(N)=O)=C(C)C1=O [Pattern F, (R)-2-hydroxy-2-methyl-4-(2,4,5-trimethyl-3,6-dioxocyclohexa-1,4-dienyl)butanamide] | 1360 (≈ 5.13 mM) | consistent with Pattern E | non-hygroscopic | – | Yellow solids | Yellow solids | converted to Pattern E | – | – | – | – | – | – | – | – | – | non-hygroscopic | Crystalline [Pattern E]
